Reference: patent US20230031406A1, “COMPOUNDS AND COMPOSITIONS FOR TREATING CONDITIONS ASSOCIATED WITH NLRP ACTIVITY” (Novartis AG, priority 2018, published 2023)
pIC50: −log10 of the molar value.

Each molecule was assayed on PMA-differentiated THP-1 cells (assay: IL-1β production in PMA-differentiated THP-1 cells stimulated with gramicidin (hTHP-1 assay containing 2% fetal bovine serum; Procedures 1 and 2)). Conditions: Homo sapiens, THP-1, Table B1; 2% fetal bovine serum; class symbols; read-out: Average IC50 of compounds in hTHP-1 assay: hTHP-1 IC50.
Assay type: cell-based, human
In short: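 Compound titrations in 0.37% final DMSO were added to THP-1 cells that had been plated after 16-18 h PMA treatment, 50,000 per well in 2% FBS. One hour later the cells received gramicidin (5 μM, 2 h) and were centrifuged. HTRF detected IL-1β in the collected supernatants.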

| Structure (SMILES) | pIC50 |
| --- | --- |
| CC(C)(O)c1ncc(S(N)(=O)=NC(=O)Nc2c3c(nc4c2CCC42CC2)CCC3)s1 (stereo not drawn) [Compound 136, 2-(2-hydroxypropan-2-yl)-N′-((1′,5′,6′,7′-tetrahydro-2′H-spiro[cyclopropane-1,3′-dicyclopenta[b,e]pyridin]-8′-yl)carbamoyl)thiazole-5-sulfonimidamide] | 6.70 to 7.40 |
| Cc1nc2c(c(NC(=O)N=S(N)(=O)c3cnc(C(C)(C)O)s3)c1C)CCC2 (stereo not drawn) [Compound 138, N′-((2,3-dimethyl-6,7-dihydro-5H-cyclopenta[b]pyridin-4-yl)carbamoyl)-2-(2-hydroxypropan-2-yl)thiazole-5-sulfonimidamide] | 4.52 to 5.30 |
| CC1CCc2c1nc1c(c2NC(=O)N=S(N)(=O)c2ccc(CN(C)C)cc2F)CCC1 (stereo not drawn) [Compound 139, 4-((dimethylamino)methyl)-2-fluoro-N′-((3-methyl-1,2,3,5,6,7-hexahydrodicyclopenta[b,e]pyridin-8-yl)carbamoyl)benzenesulfon-imidamide] | 6.00 to 6.70 |
| CC(C)c1c(-c2ccccc2)nc2c(c1NC(=O)N=S(N)(=O)c1cnc(C(C)(C)O)s1)CCC2 (stereo not drawn) [Compound 145, 2-(2-hydroxypropan-2-yl)-N′-((3-isopropyl-2-phenyl-6,7-dihydro-5H-cyclopenta[b]pyridin-4-yl)carbamoyl)thiazole-5-sulfonimidamide] | 4.52 to 5.30 |
| CC(C)(O)c1ncc(S(N)(=O)=NC(=O)Nc2c3c([n+]([O-])c4c2CCC4)CCC3)s1 (stereo not drawn) [Compound 146, 8-(3-(amino(2-(2-hydroxypropan-2-yl)thiazol-5-yl)(oxo)-λ6-sulfaneylidene)ureido)-1,2,3,5,6,7-hexahydrodicyclopenta[b,e]pyridine 4-oxide] | 4.52 to 5.30 |
| CC1(C)Cc2nc3c(c(NC(=O)N=S(N)(=O)c4cnc(C(C)(C)O)s4)c2C1)CCC3 (stereo not drawn) [Compound 147, N′-((2,2-dimethyl-1,2,3,5,6,7-hexahydrodicyclopenta[b,e]pyridin-8-yl)carbamoyl)-2-(2-hydroxypropan-2-yl)thiazole-5-sulfonimidamide] | 4.52 to 5.30 |
| CC(C)c1ncc(F)c(C(C)C)c1NC(=O)N=S(N)(=O)c1cc(C(C)(C)O)cs1 (stereo not drawn) [Compound 148, N′-((5-fluoro-2,4-diisopropylpyridin-3-yl)carbamoyl)-4-(2-hydroxypropan-2-yl)thiophene-2-sulfonimidamide] | 6.70 to 7.40 |
| CC(C)(O)c1ccc(S(N)(=O)=NC(=O)Nc2c3c(nc4c2CCC4)CCC3)s1 (stereo not drawn) [Compound 149, N′-((1,2,3,5,6,7-hexahydrodicyclopenta[b,e]pyridin-8-yl)carbamoyl)-5-(2-hydroxypropan-2-yl)thiophene-2-sulfonimidamide] | 6.00 to 6.70 |
| CC(C)(O)c1nc(CO)c(S(N)(=O)=NC(=O)Nc2c3c(nc4c2CCC4)CCC3)s1 (stereo not drawn) [Compound 150, N′-((1,2,3,5,6,7-hexahydrodicyclopenta[b,e]pyridin-8-yl)carbamoyl)-4-(hydroxymethyl)-2-(2-hydroxypropan-2-yl)thiazole-3-sulfonimidamide] | 5.30 to 6.00 |
| CC1CCc2nc3c(c(NC(=O)N=S(N)(=O)c4cnc(C(C)(C)O)s4)c21)CCC3 (stereo not drawn) [Compound 151, 2-(2-hydroxypropan-2-yl)-N′-((1-methyl-1,2,3,5,6,7-hexahydrodicyclopenta[b,e]pyridin-8-yl)carbamoyl)thiazole-5-sulfonimidamide] | 6.00 to 6.70 |
| CC1Cc2nc3c(c(NC(=O)N=S(N)(=O)c4cnc(C(C)(C)O)s4)c2C1)CCC3 (stereo not drawn) [Compound 152, 2-(2-hydroxypropan-2-yl)-N′-((2-methyl-1,2,3,5,6,7-hexahydrodicyclopenta[b,e]pyridin-8-yl)carbamoyl)thiazole-5-sulfonimidamide] | 6.00 to 6.70 |
| CC(C)(O)c1ncc(S(N)(=O)=NC(=O)Nc2c3c(nc4c2CCC4(C)C)CCC3)s1 (stereo not drawn) [Compound 153, N′-((3,3-dimethyl-1,2,3,5,6,7-hexahydrodicyclopenta[b,e]pyridin-8-yl)carbamoyl)-2-(2-hydroxypropan-2-yl)thiazole-5-sulfonimidamide] | 6.70 to 7.40 |
| CC(C)(O)c1nc(S(N)(=O)=NC(=O)Nc2c3c(nc4c2CCC4)CCC3)cs1 (stereo not drawn) [Compound 154] | 6.00 to 6.70 |
| CC(C)(O)c1csc(S(N)(=O)=NC(=O)Nc2c3c(nc4c2CCC4)CCC3)c1 (stereo not drawn) [Compound 155, N′-((1,2,3,5,6,7-hexahydrodicyclopenta[b,e]pyridin-8-yl)carbamoyl)-4-(2-hydroxypropan-2-yl)thiophene-2-sulfonimidamide] | 6.70 to 7.40 |
| Cc1nc(C(C)(C)O)ccc1S(N)(=O)=NC(=O)Nc1c2c(nc3c1CCC3)CCC2 (stereo not drawn) [Compound 157, N′-((1,2,3,5,6,7-hexahydrodicyclopenta[b,e]pyridin-8-yl)carbamoyl)-6-(2-hydroxypropan-2-yl)-2-methylpyridine-3-sulfonimidamide] | 4.52 to 5.30 |
| Cn1nc(S(N)(=O)=NC(=O)Nc2c3c(nc4c2CCC4)CCC3)cc1C(C)(C)O (stereo not drawn) [Compound 158, N-((1,2,3,5,6,7-hexahydrodicyclopenta[b,e]pyridin-8-yl)carbamoyl)-5-(2-hydroxypropan-2-yl)-1-methyl-1H-pyrazole-3-sulfonimidamide] | 5.30 to 6.00 |
| CC(C)(O)c1cc(S(N)(=O)=NC(=O)Nc2c3c(nc4c2CCC4)CCC3)nn1-c1ccccc1 (stereo not drawn) [Compound 159, N-((1,2,3,5,6,7-hexahydrodicyclopenta[b,e]pyridin-8-yl)carbamoyl)-5-(2-hydroxypropan-2-yl)-1-phenyl-1H-pyrazole-3-sulfonimidamide] | 5.30 to 6.00 |
| CC(C)c1cncc(C(C)C)c1NC(=O)N=S(N)(=O)c1cnc(C(C)(C)O)s1 (stereo not drawn) [Compound 160, N′-((3,5-diisopropylpyridin-4-yl)carbamoyl)-2-(2-hydroxypropan-2-yl)thiazole-5-sulfonimidamide] | 4.52 to 5.30 |
| CC(C)(O)c1ncc(S(N)(=O)=NC(=O)Nc2c3c(nc4c2CCC4)CCCC3)s1 (stereo not drawn) [Compound 161, N′-((2,3,5,6,7,8-hexahydro-1H-cyclopenta[b]quinolin-9-yl)carbamoyl)-2-(2-hydroxypropan-2-yl)thiazole-5-sulfonimidamide] | 5.30 to 6.00 |

Same assay, conditions: Homo sapiens, THP-1, Table B1; 2% fetal bovine serum; numeric bounds; read-out: Average IC50 of compounds in hTHP-1 assay: hTHP-1 IC50

| Structure (SMILES) | pIC50 |
| --- | --- |
| CCc1cc(NC(=O)N=S(N)(=O)c2cnc(C(C)(C)O)s2)c2c(n1)CCC2 (stereo not drawn) [Compound 137, N′-((2-ethyl-6,7-dihydro-5H-cyclopenta[b]pyridin-4-yl)carbamoyl)-2-(2-hydroxypropan-2-yl)thiazole-5-sulfonimidamide] | < 4.52 |
| CC(C)(O)c1ncc(S(N)(=O)=NC(=O)Nc2cc(-c3ccccc3)nc3c2CCC3)s1 (stereo not drawn) [Compound 142, 2-(2-hydroxypropan-2-yl)-N′-((2-phenyl-6,7-dihydro-5H-cyclopenta[b]pyridin-4-yl)carbamoyl)thiazole-5-sulfonimidamide] | < 4.52 |
| Cc1c(-c2ccccc2)nc2c(c1NC(=O)N=S(N)(=O)c1cnc(C(C)(C)O)s1)CCC2 (stereo not drawn) [Compound 143, 2-(2-hydroxypropan-2-yl)-N′-((3-methyl-2-phenyl-6,7-dihydro-5H-cyclopenta[b]pyridin-4-yl)carbamoyl)thiazole-5-sulfonimidamide] | < 4.52 |
| CCc1c(-c2ccccc2)nc2c(c1NC(=O)N=S(N)(=O)c1cnc(C(C)(C)O)s1)CCC2 (stereo not drawn) [Compound 144, N′-((3-ethyl-2-phenyl-6,7-dihydro-5H-cyclopenta[b]pyridin-4-yl)carbamoyl)-2-(2-hydroxypropan-2-yl)thiazole-5-sulfonimidamide] | < 4.52 |
| CC(C)(O)c1ccc(S(N)(=O)=NC(=O)Nc2c3c(nc4c2CCC4)CCC3)cn1 (stereo not drawn) [Compound 156, N′-((1,2,3,5,6,7-hexahydrodicyclopenta[b,e]pyridin-8-yl)carbamoyl)-6-(2-hydroxypropan-2-yl)pyridine-3-sulfonimidamide] | < 4.52 |

Same assay, conditions: Homo sapiens, THP-1, Table B2; 2% fetal bovine serum; class symbols; read-out: hTHP-1 IC50

| Structure (SMILES) | pIC50 |
| --- | --- |
| C[C@@H]1CCc2c1nc1c(c2NC(=O)N=S(N)(=O)c2ncc(C(C)(C)O)s2)CCC1 (stereo partly drawn) [Compound 140c, 5-(2-Hydroxypropan-2-yl)-N′-(((R)-3-methyl-1,2,3,5,6,7-hexahydrodicyclopenta[b,e]pyridin-8-yl)carbamoyl)thiazole-2-sulfonimidamide] | 6.00 to 6.70 |

Same assay, conditions: Table B1; 2% fetal bovine serum; class symbols; read-out: Average IC50 of compounds in hTHP-1 assay: hTHP-1 IC50

| Structure (SMILES) | pIC50 |
| --- | --- |
| CC1CCc2c1nc1c(c2NC(=O)N=S(N)(=O)c2ccc(CN(C)C)cc2)CCC1 (stereo not drawn) [Compound 134, 4-((dimethylamino)methyl)-N′-((3-methyl-1,2,3,5,6,7-hexahydrodicyclopenta[b,e]pyridin-8-yl)carbamoyl)benzenesulfon-imidamide] | 5.30 to 6.00 |
| CC1CCc2c1nc1c(c2NC(=O)N=S(N)(=O)c2ncc(C(C)(C)O)s2)CCC1 (stereo not drawn) [Compound 140, 5-(2-hydroxypropan-2-yl)-N′-((3-methyl-1,2,3,5,6,7-hexahydrodicyclopenta[b,e]pyridin-8-yl)carbamoyl)thiazole-2-sulfonimidamide] | 6.70 to 7.40 |
| CC1CCc2c1nc1c(c2NC(=O)N=S(N)(=O)c2cc(C(C)(C)O)cs2)CCC1 (stereo not drawn) [Compound 141, 4-(2-hydroxypropan-2-yl)-N′-((3-methyl-1,2,3,5,6,7-hexahydrodicyclopenta[b,e]pyridin-8-yl)carbamoyl)thiophene-2-sulfonimidamide] | 6.70 to 7.40 |
| CC1CCc2c1nc1c(c2NC(=O)N=S(N)(=O)c2cnc(C(C)(C)O)s2)CCC1 (stereo not drawn) [Compound 162, 2-(2-hydroxypropan-2-yl)-N′-((3-methyl-1,2,3,5,6,7-hexahydrodicyclopenta[b,e]pyridin-8-yl)carbamoyl)thiazole-5-sulfonimidamide] | 6.70 to 7.40 |
| C[C@H]1CCc2c1nc1c(c2NC(=O)N=[S@@](N)(=O)c2cnc(C(C)(C)O)s2)CCC1 [Compound 162ba, (R,S)-2-(2-hydroxypropan-2-yl)-N′-((3-methyl-1,2,3,5,6,7-hexahydrodicyclo-penta[b,e]pyridin-8-yl)carbamoyl)thiazole-5-sulfonimidamide] | 6.00 to 6.70 |
